Measurements from article PMC4204849, “Lifespan Based Pharmacokinetic-Pharmacodynamic Model of Tumor Growth Inhibition by Anticancer Therapeutics” (PLoS ONE, 2014).
Values after ≈ are worked out from the molar mass of the structure shown. Marks after values point to notes of the source that are not given here.

What was measured:
[1] = Pharmacokinetic study of AZD1208, single oral administration, one-compartment model; type: in vivo, mice; conditions: single oral 3, 10, 30 mg/kg
Description: For pharmacokinetic study of AZ968, CD1 mice were given single i.p. injection of AZ968 at 10, 20 or 30 mg/kg with 3 mice per dose group. Blood samples were collected via cardiac puncture. Total plasma concentrations of AZ968 were determined by LC/MS/MS method. Same procedure was used for the pharmacokinetic study of AZD1208, except AZD1208 was administered orally (p.o.) at 3, 10 or 30 mg/kg doses as outlined in the original study.
(§1) Data for this case study was provided by AstraZeneca. For the purpose of this case study we will set time according to when the first dose of AZD1208 was administered, which we count as day 1. We began with a compartmental PK analysis after a single oral administration of AZD1208 at 3, 10 and 30 mg/kg and found it well described using a one-compartment PK model with first order absorption as shown in Figure 9A.

MOLM-16 tumor cell = experiment: Tumor growth inhibition by AZD1208 in xenograft, lifespan TGI model (non-cycle-specific, Emax); type: in vivo, mice
Description: as §1
After establishing the PK model, we fit the TGI data using the lifespan TGI model. Since AZD1208 is a pan-Pim kinase inhibitor that promotes apoptosis at any stages of cell cycle, the data were analyzed using the non-cycle-specific model. […] In order to adapt the lifespan TGI model to account for only exponential growth we simply set the tumor threshold, wth, to a very large value well beyond the observed values of tumor size. Another unique feature of this dataset is the inclusion of saturating doses. To accommodate the dose ranges we replaced the drug potency constant, k2, in eq. 18 with the Emax model. The process of fitting was the same as for the previous studies, however, in this study the control data were very sparse and the doubling time, T, could not be estimated. In order to proceed with the analysis we set T = 3 days based on the doubling time reported by the commercial vendor of the MOLM-16 tumor cell used in the study, which was similar to the doubling reported the original study when the cells were initially collected. […] The remaining parameters were estimated with high precision and are well within biologically feasible ranges (see Table 6).

[2] = mouse, in vivo, iv, 30 mg/kg
Description: (§2) Data used in Case Study 1 was obtained from mouse xenograft study reported by Simeoni and colleague. […] Data from the study was digitized using Graph Digitizer 2.0 (Nick's Production).

[3] = tested on: tumors derived from the HCT116 human colon carcinoma cell line; experiment: Tumor growth inhibition by paclitaxel in xenograft mice, lifespan TGI model with cycle-specific drug effect; type: in vivo; conditions: for TA (duration of apoptosis): 30 mg/kg i.v. every 4 days from day 8, grid search, then fixed, data digitized from ref 11; for Emax (maximum effect): fixed to 1 due to lack of escalating doses
Description: as §2

[4] = set-up: method as in PMID 14871843; conditions: two-compartment model, parameter fixed, cited from earlier work

V/F [1] [L/kg] | elimination rate constant, kel [1] | ka [1] [day⁻¹] | EC50 (MOLM-16 tumor cell; plasma concentration, Emax model, non-cycle-specific model) [µg/mL] | peak plasma concentration [2] [ng/mL] | Compound | TA (duration of apoptosis) (MOLM-16 tumor cell; 0.3, 1, 3, 10, 30 mg/kg orally, parameter was fixed) | Emax (MOLM-16 tumor cell; Emax model replacing k2 in non-cycle-specific model) | TA (duration of apoptosis) [3] [days] | TA (duration of apoptosis) ([3]; listed as Paclitaxel) | Emax (maximum effect) [3] | Emax (maximum effect) ([3]; listed as Paclitaxel) | V ([4]; i.v. paclitaxel) [L/kg] | k12 [4] [h⁻¹] | k21 [4] [h⁻¹] | kel [4] [h⁻¹]
4.86 | same value as ka | 5.52 | 0.182 (≈ 0.48 µM) | – | N[C@@H]1CCCN(c2c(/C=C3\SC(=O)NC3=O)cccc2-c2ccccc2)C1 [AZD1208] | 1.92 ^a days | 0.159 | – | – | – | – | – | – | – | –
– | – | – | – | 37040 | CC(=O)O[C@H]1C(=O)[C@@]2(C)[C@H]([C@H](OC(=O)c3ccccc3)[C@]3(O)C[C@H](OC(=O)[C@H](O)[C@@H](NC(=O)c4ccccc4)c4ccccc4)C(C)=C1C3(C)C)[C@]1(OC(C)=O)CO[C@@H]1C[C@@H]2O [paclitaxel] | – | – | 0.536 | 0.536 ^a days | 1 | 1 ^a | 0.81 | 0.006 | 0.0838 | 0.868
